Experiments:
Experiment in all cases: relative viability (nuclei count vs DMSO), 5 days (fraction); higher = more cells survive
NCI-H1563 = test system: NCI-H1563
In short: (§1)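 Lung cancer cell lines, seeded in 1536-well plates, were treated the following day by pin tool with a single drug or with five library-drug doses (not always all listed) in √10 steps on top of a fixed anchor-drug dose. Cells were fixed and nuclei stained in one step after 5 days, and nuclei were counted. Relative viability is the nuclei count for treated wells divided by that for vehicle wells, reported as medians of duplicate plates.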

LOU-NH91 = test system: LOU-NH91
In short: as §1

LU99A = test system: LU99A
In short: as §1

NCI-H322M = test system: NCI-H322M
In short: as §1

NCI-H2085 = test system: NCI-H2085
In short: as §1

NCI-H3122 = test system: NCI-H3122
In short: as §1

NCI-H2126 = test system: NCI-H2126
In short: as §1

ChaGo-K-1 = test system: ChaGo-K-1
In short: as §1

NCI-H1666 = test system: NCI-H1666
In short: as §1

HCC-78 = test system: HCC-78
In short: as §1

SK-LU-1 = test system: SK-LU-1
In short: as §1

LCLC-103H = test system: LCLC-103H
In short: as §1

LK-2 = test system: LK-2
In short: as §1

RERF-LC-KJ = test system: RERF-LC-KJ
In short: as §1

NCI-H23 = test system: NCI-H23
In short: as §1

EMC-BAC-2 = test system: EMC-BAC-2
In short: as §1

LXF-289 = test system: LXF-289
In short: as §1

HCC-827 = test system: HCC-827
In short: as §1

NCI-H1975 = test system: NCI-H1975
In short: as §1

NCI-H2405 = test system: NCI-H2405
In short: as §1

EPLC-272H = test system: EPLC-272H
In short: as §1

SW 1573 = test system: SW 1573
In short: as §1

## C=C1C(=O)O[C@@H](CCCCCCCC)[C@@H]1C(=O)O [C-75] + C[C@@H](Oc1cc(-c2cnn(C3CCNCC3)c2)cnc1N)c1c(Cl)ccc(F)c1Cl [Crizotinib] (partner 1 µM)
NCI-H1563; first compound 0.08 µM
  relative viability: 0.801
NCI-H1563; first compound 0.253 µM
  relative viability: 0.909
NCI-H1563; first compound 0.8 µM
  relative viability: 0.865
NCI-H1563; first compound 2.53 µM
  relative viability: 0.826
NCI-H1563; first compound 8 µM
  relative viability: 0.931
LOU-NH91; first compound 0.08 µM
  relative viability: 0.743
LOU-NH91; first compound 0.253 µM
  relative viability: 0.696
LOU-NH91; first compound 0.8 µM
  relative viability: 0.726
LOU-NH91; first compound 2.53 µM
  relative viability: 0.682
LOU-NH91; first compound 8 µM
  relative viability: 0.742
LU99A; first compound 0.08 µM
  relative viability: 0.538
LU99A; first compound 0.253 µM
  relative viability: 0.616
LU99A; first compound 0.8 µM
  relative viability: 0.49
LU99A; first compound 2.53 µM
  relative viability: 0.395
LU99A; first compound 8 µM
  relative viability: 0.398
NCI-H322M; first compound 0.08 µM
  relative viability: 0.977
NCI-H322M; first compound 0.253 µM
  relative viability: 1.19
NCI-H322M; first compound 0.8 µM
  relative viability: 0.919
NCI-H322M; first compound 2.53 µM
  relative viability: 0.971
NCI-H322M; first compound 8 µM
  relative viability: 0.973
NCI-H2085; first compound 0.08 µM
  relative viability: 0.739
NCI-H2085; first compound 0.253 µM
  relative viability: 0.803
NCI-H2085; first compound 0.8 µM
  relative viability: 0.878
NCI-H2085; first compound 2.53 µM
  relative viability: 0.656
NCI-H2085; first compound 8 µM
  relative viability: 0.878
NCI-H3122; first compound 0.08 µM
  relative viability: 0.26
NCI-H3122; first compound 0.253 µM
  relative viability: 0.254
NCI-H3122; first compound 0.8 µM
  relative viability: 0.3
NCI-H3122; first compound 8 µM
  relative viability: 0.269
NCI-H2126; first compound 0.08 µM
  relative viability: 1.04
NCI-H2126; first compound 0.253 µM
  relative viability: 1.07
NCI-H2126; first compound 0.8 µM
  relative viability: 1.01
NCI-H2126; first compound 2.53 µM
  relative viability: 0.735
NCI-H2126; first compound 8 µM
  relative viability: 0.972
ChaGo-K-1; first compound 0.08 µM
  relative viability: 1.03
ChaGo-K-1; first compound 0.253 µM
  relative viability: 0.983
ChaGo-K-1; first compound 0.8 µM
  relative viability: 1.12
ChaGo-K-1; first compound 2.53 µM
  relative viability: 0.818
ChaGo-K-1; first compound 8 µM
  relative viability: 1.08
NCI-H1666; first compound 0.08 µM
  relative viability: 1.19
NCI-H1666; first compound 0.253 µM
  relative viability: 1.21
NCI-H1666; first compound 0.8 µM
  relative viability: 0.928
NCI-H1666; first compound 2.53 µM
  relative viability: 0.847
NCI-H1666; first compound 8 µM
  relative viability: 0.614
HCC-78; first compound 0.08 µM
  relative viability: 0.358
HCC-78; first compound 0.253 µM
  relative viability: 0.338
HCC-78; first compound 0.8 µM
  relative viability: 0.36
HCC-78; first compound 2.53 µM
  relative viability: 0.308
HCC-78; first compound 8 µM
  relative viability: 0.4
SK-LU-1; first compound 0.08 µM
  relative viability: 0.801
SK-LU-1; first compound 0.253 µM
  relative viability: 0.987
SK-LU-1; first compound 0.8 µM
  relative viability: 0.883
SK-LU-1; first compound 2.53 µM
  relative viability: 0.907
SK-LU-1; first compound 8 µM
  relative viability: 0.655
LCLC-103H; first compound 0.08 µM
  relative viability: 1.08
LCLC-103H; first compound 0.253 µM
  relative viability: 1.03
LCLC-103H; first compound 0.8 µM
  relative viability: 1.05
LCLC-103H; first compound 2.53 µM
  relative viability: 0.899
LCLC-103H; first compound 8 µM
  relative viability: 0.978
LK-2; first compound 0.08 µM
  relative viability: 0.239
LK-2; first compound 0.253 µM
  relative viability: 0.208
LK-2; first compound 0.8 µM
  relative viability: 0.231
LK-2; first compound 2.53 µM
  relative viability: 0.239
LK-2; first compound 8 µM
  relative viability: 0.246
RERF-LC-KJ; first compound 0.08 µM
  relative viability: 0.881
RERF-LC-KJ; first compound 0.253 µM
  relative viability: 0.846
RERF-LC-KJ; first compound 0.8 µM
  relative viability: 0.815
RERF-LC-KJ; first compound 2.53 µM
  relative viability: 0.704
RERF-LC-KJ; first compound 8 µM
  relative viability: 0.86
NCI-H23; first compound 0.08 µM
  relative viability: 0.509
NCI-H23; first compound 0.253 µM
  relative viability: 0.579
NCI-H23; first compound 0.8 µM
  relative viability: 0.522
NCI-H23; first compound 2.53 µM
  relative viability: 0.507
NCI-H23; first compound 8 µM
  relative viability: 0.534
EMC-BAC-2; first compound 0.08 µM
  relative viability: 0.752
EMC-BAC-2; first compound 0.253 µM
  relative viability: 0.731
EMC-BAC-2; first compound 0.8 µM
  relative viability: 0.744
EMC-BAC-2; first compound 2.53 µM
  relative viability: 0.692
EMC-BAC-2; first compound 8 µM
  relative viability: 0.704
LXF-289; first compound 0.08 µM
  relative viability: 0.795
LXF-289; first compound 0.253 µM
  relative viability: 0.793
LXF-289; first compound 0.8 µM
  relative viability: 0.812
LXF-289; first compound 2.53 µM
  relative viability: 0.739
LXF-289; first compound 8 µM
  relative viability: 0.806
HCC-827; first compound 0.08 µM
  relative viability: 0.917
HCC-827; first compound 0.253 µM
  relative viability: 0.88
HCC-827; first compound 0.8 µM
  relative viability: 0.872
HCC-827; first compound 2.53 µM
  relative viability: 0.973
HCC-827; first compound 8 µM
  relative viability: 0.946
NCI-H1975; first compound 0.08 µM
  relative viability: 0.987
NCI-H1975; first compound 0.253 µM
  relative viability: 0.929
NCI-H1975; first compound 0.8 µM
  relative viability: 0.908
NCI-H1975; first compound 2.53 µM
  relative viability: 0.773
NCI-H1975; first compound 8 µM
  relative viability: 0.935
NCI-H2405; first compound 0.08 µM
  relative viability: 0.825
NCI-H2405; first compound 0.253 µM
  relative viability: 0.683
NCI-H2405; first compound 0.8 µM
  relative viability: 0.796
NCI-H2405; first compound 2.53 µM
  relative viability: 0.785
NCI-H2405; first compound 8 µM
  relative viability: 0.868
EPLC-272H; first compound 0.08 µM
  relative viability: 0.86
EPLC-272H; first compound 0.253 µM
  relative viability: 0.994
EPLC-272H; first compound 0.8 µM
  relative viability: 0.824
EPLC-272H; first compound 2.53 µM
  relative viability: 0.672
EPLC-272H; first compound 8 µM
  relative viability: 0.658
SW 1573; first compound 0.08 µM
  relative viability: 0.812
SW 1573; first compound 0.253 µM
  relative viability: 0.842
SW 1573; first compound 0.8 µM
  relative viability: 0.768
SW 1573; first compound 2.53 µM
  relative viability: 0.809
SW 1573; first compound 8 µM
  relative viability: 0.754

From the supplement of paper PMC10307832
